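How tested: cells in 96-well plates exposed to compound for 48 hours at five concentrations. Here, GI50 denotes the concentration required for 50% inhibition of growth. TGI marks complete inhibition of growth.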
Key:
Test in all cases: DTP human tumour cell line panel, 48 h
[1] = test system: HCC-2998 colon
[2] = test system: HOP-62 NSCLC
[3] = test system: HOP-92 NSCLC
[4] = test system: HT29 colon
[5] = test system: OVCAR-8 ovarian
[6] = test system: PC-3 prostate
[7] = test system: RPMI-8226 leukemia
[8] = test system: RXF 393 renal
[9] = test system: SW-620 colon
[10] = test system: UACC-62 melanoma

SMILES | GI50 [1] [µM] | TGI [1] [µM] | GI50 [2] [µM] | TGI [2] [µM] | GI50 [3] [µM] | TGI [3] [µM] | GI50 [4] [µM] | TGI [4] [µM] | GI50 [5] [µM] | TGI [5] [µM] | GI50 [6] [µM] | TGI [6] [µM] | GI50 [7] [µM] | TGI [7] [µM] | GI50 [8] [µM] | TGI [8] [µM] | GI50 [9] [µM] | TGI [9] [µM] | GI50 [10] [µM] | TGI [10] [µM]
O=C(/C=C/c1cccc(Oc2ccc(Cl)cc2)c1)c1ccccc1 | 117 | 255 | 113 | 272 | 21.8 | 50.1 | 26.2 | 61.6 | 26.9 | 66.9 | 19.7 | 37.8 | 25.3 | 61 | 44.2 | 152 | 22.6 | 49.4 | 26.8 | 77
Cc1nn2c(-c3nc4cc(Cl)c(Cl)cc4[nH]3)c(-c3ccc(F)cc3)nc2s1 | > 100 | > 100 | 1.93 | 7.26 |  |  | 1.91 | > 100 | 2.11 | 15 | 9.29 | > 100 | 2.44 | > 100 | 1.84 | 5.41 | 10.2 | > 100 | 3.49 | > 46.3
N#Cc1cccc(C2C3=C(COC3=O)N(CCO)c3cc4c(cc32)CCC4)c1 (centres undefined) | 0.186 | > 30.4 | 0.25 | > 50 | 0.871 | 35.3 | 0.16 | > 18.8 | 0.237 | > 50 | 0.15 | > 50 | 0.212 | > 28.1 | 0.119 | > 50 | 0.153 | > 50 | 0.028 | > 50
C=CC[PH+](c1ccccc1)c1ccccc1.C=CC[PH+](c1ccccc1)c1ccccc1.[Pt+2].[S-]c1ncccn1.[S-]c1ncccn1 | 19.1 | 41.5 | 39.5 | > 100 | 2.7 | 19.7 | 13.5 | > 100 | 4.44 | > 100 | 11 | 37.7 | 3.16 | 17.4 | 4.67 | 18.3 | 4.75 | 29.7 | 8.06 | 24.8
CCN(CC)CCS(=O)(=O)CCNc1ccnc2cc(Cl)ccc12 | 8.81 | > 23.8 | 4.99 | > 100 | 0.619 | 7.39 | 0.868 | 2.29 | 2.54 | > 27.3 | 3.82 | > 100 | 1.41 | 21.6 | 1.32 | 5.8 | 0.608 | 12.5 | 3.83 | 29.6
Nc1n[nH]c2ccc([C@@H]3Nc4c(F)cc5[nH]ncc5c4[C@H]4C5CCC(C5)[C@@H]34)cc12 (some centres undefined) | 0.39 | 22.2 | 0.432 | 38.5 | 1.48 | > 29.3 | 0.317 | > 34.4 | 0.468 | > 100 | 0.331 | > 46.2 | 0.472 | 24.6 |  |  | 0.318 | > 49.1 | 0.242 | > 44.9
Cc1n(Cc2ccc3ccccc3n2)cc[n+]1Cc1ccc2ccccc2c1 | 0.819 | 7.24 | 1.79 | 7.36 | 0.355 | 3.06 | 0.454 | 9.61 | 1.29 | 11.2 | 0.467 | 10.6 | 0.376 | 6.63 | 3.59 | 17.4 | 1.82 | 13.3 | 0.933 | 3.61
Cc1cn2c(/C=C3/C(=O)Nc4ccc(C(=O)O)cc43)c(C)nc2s1 | > 100 | > 100 | > 100 | > 100 | > 100 | > 100 | > 100 | > 100 | > 100 | > 100 | > 100 | > 100 | > 100 | > 100 |  |  | > 100 | > 100 | > 100 | > 100
O=C(O)Cn1ccc(=O)c2c([N+](=O)[O-])cccc21 |  | > 100 |  | > 100 |  |  |  | > 100 |  | > 100 |  | > 100 |  |  |  |  |  | > 100 |  | > 100
Cc1ccc(-c2nc(C(Cl)Cl)nc3cc(C)nn23)cc1 | 1.18 | 2.59 | 1.31 | 8.58 | 1.95 | 7.64 | 0.458 | > 100 | 1.67 | > 100 | 2.55 | > 100 | 5.02 | > 100 | 0.673 | 2.36 |  |  | 3.12 | > 100
NCC(Cc1ccccc1)P(=O)(O)O (centres undefined) |  | > 100 |  | > 100 |  | > 100 |  | > 100 |  | > 100 |  | > 100 |  |  |  | > 100 |  | > 100 |  | > 100
C=C(C)[C@@H]1CC[C@]2(C(=O)n3ccnc3)CC[C@]3(C)[C@H](CC[C@@H]4[C@@]5(C)CCCNC(C)(C)[C@@H]5CC[C@]43C)[C@@H]12 | 1.64 | 3.2 | 1.75 | 3.31 | 1.49 | 2.96 | 0.785 | 2.17 | 2.07 | 3.88 | 1.29 | 2.67 |  |  | 1.5 | 2.92 | 1.68 | 3.39 | 1.6 | 3.06
CN1CCOCCOCCOc2ccccc2NC(=O)c2nc(cnc2N)-c2ccc(cc2)S1(=O)=O | > 100 | > 100 | 14.7 | 46.2 |  |  |  |  | 7.1 | > 100 | > 100 | > 100 |  |  | 1.59 | 21.9 |  |  |  | 
CCN(CCNc1ccc(C)c2sc3cc(Cl)ccc3c(=O)c12)CC(C)(C)O | 2.02 | 4.08 | 3.87 | 16.1 |  |  | 2 | 4.86 | 22.5 | > 100 | 12 | > 100 | 3.86 | 22.2 | 2.3 | 5.4 | 3.64 | 13.4 | 1.67 | 3.37
